Laboratory results taken from patent US4818770A, “Prevention of a plant disease by specific inhibition of fungal polyamine biosynthesis” (priority 1986, dated 1989).
Several values for one entry are separate records, joined by “and”; a condition that tells them apart may be missing. Identical values can stand only once. Like-named read-outs stand apart in the source and are kept apart here.

Legend:
[1] = tested on: P. recondita f. sp. tritici; type: in vivo, Puccinia recondita f. sp. tritici
[2] = tested on: Botrytis sp., B. cinerea, Rhizoctonia solani, Monilinia fructicola; conditions: cited from earlier work
[3] = tested on: Puccinia graminis fsp avenae; type: in vivo
Verticillium dahliae [4] = experiment: Verticillium wilt symptoms in Bonny Best tomato after foliar spray; type: in vivo; conditions: concentrations up to 10 mM
Erysiphe polygoni = experiment: Infection by bean powdery mildew; type: in vivo
Erysiphe graminis = experiment: Wheat powdery mildew infection, colonies per plant; conditions: concentrations up to 5 mM
Description: With wheat powdery mildew (E. graminis) 10-day-old seedlings were sprayed with solutions of DFMA or DFMO from 0.01 to 5.0 mM before and after inoculation of the plants with conidia. Inoculation occurred naturally in the greenhouse by distributing infected plants among the experimental plants for 24 hours. Infection was evaluated 10 days after inoculation by counting mildew colonies.

[5] = tested on: P. graminis f. sp. tritici; type: in vivo, Puccinia graminis f. sp. tritici
bean rust uredospores = experiment: Germination and differentiation of bean rust uredospores in agar; type: cell-based, Uromyces phaseoli; conditions: for inhibition at 100 µM / inhibition at 500 µM / inhibition at 1000 µM / inhibition at 5000 µM: Uromyces phaseoli
Verticillium dahliae [6] = experiment: Radial mycelial growth of Verticillium dahliae in vitro; type: cell-based; conditions: Verticillium dahliae, read-out: inhibition of radial growth relative to that observed with DFMO
PA titers of bean leaves = experiment: Polyamine titers in leaves of sprayed bean plants; type: in vivo, Phaseolus vulgaris; conditions: sprays 0.01, 0.1 and 1.0 mM; 1, 3 and 8 days later
Description: PA analysis was performed on leaf samples collected from inhibitor-sprayed bean plants. Leaf samples were ground in prechilled mortars with 10% (w/v) HClO4 at a ratio of 200 mg fresh weight leaf per ml HClO4. Homogenates were centrifuged at 26,00 g for 20 minutes at 4° C. The clear supernatant fractions were used for dansylation according to a procedure previously described. Briefly, 0.4 ml of freshly prepared dansyl (Diaminonaphthylsulfonyl)-C1 (Sigma), 5 mg/ml in acetone, and 0.2 ml of saturated Na2 CO3 were added to 0.2 ml of the supernatant fraction. The dansylated PA were extracted with 0.25 ml benzene and the clear benzene layer was used for PA determinations by TLC on LK6D high resolution silica gel plates (Whatman). After development in chloroform:triethylamine (25:2 v/v) for about 1 hour and location by fluorescence under a UV lamp, the dansylpolyamine bands were scraped off, eluted in 4 ml of ethyl acetate and quantified with an Aminco-Bowman fluorimeter.
The effect of DFMO and DFMA sprays (0.01, 0.1, and 1.0 mM) on PA titers was also examined. Unifoliolate leaves were sprayed in the usual way and examined 1 and 3 days later, while the first trifolioloate leaves, unexpanded ata the time of spray and themselves unsprayed, were examined 8 days later.

Uromyces phaseoli = experiment: Bean rust lesions on unifoliolate leaves of Pinto bean sprayed before or after inoculation; type: in vivo
[7] = tested on: bean plants (Phaseolus vulgaris cv Pinto); experiment: Effect of sprays on growth and appearance of bean plants; type: in vivo; conditions: sprays 0.01, 0.1 and 1.0 mM
Description: Unifoliolate leaves of 10-day-old bean seedlings were sprayed (400 ul per leaf) with DFMO or alpha-difluoromethylarginine (DFMA) at concentrations of 0.01-5 mM, before or after inoculation with uredospores of the bean rust, Uromyces phaseoli, Race 0. The inhibitor solutions were prepared in 0.01% Tween 20, with the pH adjusted to 7.0. Control plants without inhibitor were sprayed similarly and were allowed to dry before inoculation with the pathogen. After inoculation with rust uredospores (25 mg/100 ml of 0.01% Tween 20) all plants were placed in dew chambers (100% relative humidity) for 16 hours at 19° C. in total darkness. After exposures to inhibitors and uredospores, all plants were returned to the greenhouse and arranged randomly. Disease severity was evaluated 7 days after inoculation by counting foliar lesions. In control plants and those treated with low concentrations of DFMO, uredospores were collected randomly from each treatment to determine percent germination and pathogenicity. For determination of germination, spores were dusted onto Petri plates containing 10 mM 2-(N-morpholino)ethanesulfonic acid (Mes) at pH 7.0, 3 mM CaCl2, 2 mM MgSO4, and 1% purified agar, and incubated for 3 hr at 19° C. in the light.

[8] = read-out: Differentiation % Inhibiton
[9] = read-out: Germination % Inhibition
[10] = postinoculation exposure, inhibitor 1.0 mM
[11] = postinoculation exposure, inhibitor 5.0 mM
[12] = preinoculation exposure, inhibitor 1.0 mM
[13] = preinoculation exposure, inhibitor 5.0 mM

Question: Which Uredia/plant ([1]; 0.01 mM) does the source give for `N=C(N)NCCC[C@](N)(C(=O)O)C(F)F` [DFMA, alpha-difluoromethylarginine] here?
Answer: 74 Uredia/plant and 49 Uredia/plant

Question: What about the Uredia/plant ([1]; 0.025 mM) of the same compound?
Answer: 62 Uredia/plant and 40 Uredia/plant

Question: And the “% control” value ([1]; 0.065 mM)?
Answer: 32% and 54%

Question: And the Uredia/plant ([1]; 0.065 mM)?
Answer: 54 Uredia/plant and 37 Uredia/plant

Question: What about the “% control” value ([1]; 0.10 mM) of the same compound?
Answer: 37% and 51%

Question: What about the Uredia/plant ([1]; 0.10 mM) of the same compound?
Answer: 50 Uredia/plant and 39 Uredia/plant

Question: And the “% control” value ([1]; 0.13 mM)?
Answer: 34% and 47%

Question: What about the Uredia/plant ([1]; 0.13 mM) of the same compound?
Answer: 53 Uredia/plant and 42 Uredia/plant

Question: What about the “% control” value ([1]; 0.16 mM) of the same compound?
Answer: 39% and 49%

Question: What about the Uredia/plant ([1]; 0.16 mM) of the same compound?
Answer: 49 Uredia/plant and 41 Uredia/plant

Question: And the “% control” value ([1]; 0.20 mM)?
Answer: 46% and 47%

Question: And the Uredia/plant ([1]; 0.20 mM)?
Answer: 43 Uredia/plant and 42 Uredia/plant

Question: What about the “% control” value ([1]; 1.00 mM) of the same compound?
Answer: 57% and 77%

Question: What about the Uredia/plant ([1]; 1.00 mM) of the same compound?
Answer: 34 Uredia/plant and 18 Uredia/plant

Question: And the “mycelial growth in vitro” value ([2]; Botrytis sp., B. cinerea, Rhizoctonia solani, Monilinia fructicola)?
Answer: inhibited mycelial growth

Question: And the “relative inhibition of fungal growth in vitro” value ([2]; Plant Cell Physiol. (1985), vol. 26, 683-692)?
Answer: more effective inhibitor of fungal growth than was DFMO

Question: What about the Percent control ([3]; 0.01 mM) of the same compound?
Answer: 40.4%

Question: What about the Percent control ([3]; 0.025 mM) of the same compound?
Answer: 32.6%

Question: What about the Percent control ([3]; 0.065 mM) of the same compound?
Answer: 41.9%

Question: And the Percent control ([3]; 0.10 mM)?
Answer: 53.1%

Question: And the Percent control ([3]; 0.13 mM)?
Answer: 61.5%

Question: What about the Percent control ([3]; 0.16 mM) of the same compound?
Answer: 57.0%

Question: And the Percent control ([3]; 0.20 mM)?
Answer: 63.8%

Question: What about the Percent control ([3]; 1.00 mM) of the same compound?
Answer: 86.0%

Question: And the “effectiveness against oat stem rust compared with DFMO” value ([3]; in vivo)?
Answer: nearly as effective as DFMO

Question: What about the “symptom severity and time of symptom expression” value (Verticillium dahliae [4]) of the same compound?
Answer: did not alter either symptom severity nor time of symptom expression

Question: What about the Percent control (Erysiphe polygoni; 1 mM) of the same compound?
Answer: 7%

Question: What about the Percent control (Erysiphe polygoni; 5 mM) of the same compound?
Answer: 35%

Question: And the Percent control (Erysiphe polygoni; 10 mM)?
Answer: 35%

Question: What about the “control of wheat powdery mildew infection” value (Erysiphe graminis) of the same compound?
Answer: ineffective

Question: What about the “control of wheat stem rust” value ([5]; 0.01 to 1.0 mM) of the same compound?
Answer: relatively ineffective

Question: And the “% control” value ([5]; post-inoculation, 0.01 mM)?
Answer: 27%

Question: What about the Uredia/plant ([5]; post-inoculation, 0.01 mM) of the same compound?
Answer: 154 Uredia/plant

Question: What about the “% control” value ([5]; post-inoculation, 0.025 mM) of the same compound?
Answer: 36%

Question: What about the Uredia/plant ([5]; post-inoculation, 0.025 mM) of the same compound?
Answer: 134 Uredia/plant

Question: And the “% control” value ([5]; post-inoculation, 0.065 mM)?
Answer: 29%

Question: What about the Uredia/plant ([5]; post-inoculation, 0.065 mM) of the same compound?
Answer: 150 Uredia/plant

Question: And the “% control” value ([5]; post-inoculation, 0.10 mM)?
Answer: 28%

Question: What about the Uredia/plant ([5]; post-inoculation, 0.10 mM) of the same compound?
Answer: 152 Uredia/plant

Question: What about the “% control” value ([5]; post-inoculation, 0.13 mM) of the same compound?
Answer: 42%

Question: And the Uredia/plant ([5]; post-inoculation, 0.13 mM)?
Answer: 122 Uredia/plant

Question: What about the “% control” value ([5]; post-inoculation, 0.16 mM) of the same compound?
Answer: 42%

Question: And the Uredia/plant ([5]; post-inoculation, 0.16 mM)?
Answer: 122 Uredia/plant

Question: What about the “% control” value ([5]; post-inoculation, 0.20 mM) of the same compound?
Answer: 41%

Question: What about the Uredia/plant ([5]; post-inoculation, 0.20 mM) of the same compound?
Answer: 124 Uredia/plant

Question: What about the “% control” value ([5]; post-inoculation, 1.00 mM) of the same compound?
Answer: 40%

Question: And the Uredia/plant ([5]; post-inoculation, 1.00 mM)?
Answer: 126 Uredia/plant

Question: And the “% control” value ([5]; pre-inoculation, 0.01 mM)?
Answer: 9%

Question: And the Uredia/plant ([5]; pre-inoculation, 0.01 mM)?
Answer: 192 Uredia/plant

Question: And the “% control” value ([5]; pre-inoculation, 0.025 mM)?
Answer: 20%

Question: What about the Uredia/plant ([5]; pre-inoculation, 0.025 mM) of the same compound?
Answer: 167 Uredia/plant

Question: What about the “% control” value ([5]; pre-inoculation, 0.065 mM) of the same compound?
Answer: 20%

Question: What about the Uredia/plant ([5]; pre-inoculation, 0.065 mM) of the same compound?
Answer: 168 Uredia/plant

Question: What about the “% control” value ([5]; pre-inoculation, 0.10 mM) of the same compound?
Answer: 21%

Question: And the Uredia/plant ([5]; pre-inoculation, 0.10 mM)?
Answer: 165 Uredia/plant

Question: And the “% control” value ([5]; pre-inoculation, 0.13 mM)?
Answer: 8%

Question: And the Uredia/plant ([5]; pre-inoculation, 0.13 mM)?
Answer: 193 Uredia/plant

Question: What about the “% control” value ([5]; pre-inoculation, 0.16 mM) of the same compound?
Answer: 11%

Question: What about the Uredia/plant ([5]; pre-inoculation, 0.16 mM) of the same compound?
Answer: 186 Uredia/plant

Question: And the “% control” value ([5]; pre-inoculation, 0.20 mM)?
Answer: 18%

Question: And the Uredia/plant ([5]; pre-inoculation, 0.20 mM)?
Answer: 172 Uredia/plant

Question: What about the “% control” value ([5]; pre-inoculation, 1.00 mM) of the same compound?
Answer: 30%

Question: What about the Uredia/plant ([5]; pre-inoculation, 1.00 mM) of the same compound?
Answer: 148 Uredia/plant

Question: What about the Differentiation % (bean rust uredospores; 0.1 mM) of the same compound?
Answer: 46%

Question: What about the Germination % (bean rust uredospores; 0.1 mM) of the same compound?
Answer: 36%

Question: And the Differentiation % (bean rust uredospores; 0.5 mM)?
Answer: 30%

Question: What about the Germination % (bean rust uredospores; 0.5 mM) of the same compound?
Answer: 36%

Question: And the Differentiation % (bean rust uredospores; 1.0 mM)?
Answer: 23%

Question: And the Germination % (bean rust uredospores; 1.0 mM)?
Answer: 31%

Question: And the Differentiation % (bean rust uredospores; 5.0 mM)?
Answer: 18%

Question: And the Germination % (bean rust uredospores; 5.0 mM)?
Answer: 26%

Question: What about the inhibition at 100 µM (bean rust uredospores; [8]) of the same compound?
Answer: 22%

Question: And the inhibition at 500 µM (bean rust uredospores; [8])?
Answer: 49%

Question: What about the inhibition at 1000 µM (bean rust uredospores; [8]) of the same compound?
Answer: 61%

Question: What about the inhibition at 5000 µM (bean rust uredospores; [8]) of the same compound?
Answer: 69%

Question: And the inhibition at 100 µM (bean rust uredospores; [9])?
Answer: 14%

Question: What about the inhibition at 500 µM (bean rust uredospores; [9]) of the same compound?
Answer: 14%

Question: What about the inhibition at 1000 µM (bean rust uredospores; [9]) of the same compound?
Answer: 26%

Question: And the inhibition at 5000 µM (bean rust uredospores; [9])?
Answer: 38%

Question: And the inhibition at 500 µM (Verticillium dahliae [6])?
Answer: ~50%

Question: What about the “PA levels in treated leaves” value (PA titers of bean leaves) of the same compound?
Answer: no significant reductions

Question: What about the “reduction of bean rust infection” value (Uromyces phaseoli; even at 5.0 mM) of the same compound?
Answer: ineffective

Question: What about the “germination or pathogenicity of uredospores collected from treated plants” value (Uromyces phaseoli; plants treated with low concentrations) of the same compound?
Answer: no decrease in germination or pathogenicity

Question: And the “Lesions per cm^2” value (Uromyces phaseoli; [10])?
Answer: 56 ± 3 per cm^2

Question: What about the Lesions per leaf (Uromyces phaseoli; [10]) of the same compound?
Answer: 2829 ± 242 per leaf

Question: What about the “Lesions per cm^2” value (Uromyces phaseoli; [11]) of the same compound?
Answer: 50 ± 2 per cm^2

Question: What about the Lesions per leaf (Uromyces phaseoli; [11]) of the same compound?
Answer: 2195 ± 169 per leaf

Question: What about the “Lesions per cm^2” value (Uromyces phaseoli; [12]) of the same compound?
Answer: 51 ± 4 per cm^2

Question: What about the Lesions per leaf (Uromyces phaseoli; [12]) of the same compound?
Answer: 3101 ± 217 per leaf

Question: And the “Lesions per cm^2” value (Uromyces phaseoli; [13])?
Answer: 46 ± 4 per cm^2

Question: And the Lesions per leaf (Uromyces phaseoli; [13])?
Answer: 2928 ± 317 per leaf

Question: What about the “growth of the bean plants” value [7] of the same compound?
Answer: no effect
